Measurements: patent publication US7262171B1, “Use of rhamnolipids in wound healing, treating burn shock, atherosclerosis, organ transplants, depression, schizophrenia and cosmetics” (Paradigm Biomedical, Inc., priority 1998, dated 2007)
Structures can show the parent of a compound that is named as a salt.

What was measured:
burn wounds [1] = assay: Topical treatment of burn wounds, 7% of body surface; settings: for mean value of collagen tissue: sacrificed on 45th day, histopathology; for mean value of collagen concentration relative to group 1 D (placebo): placebo taken as 1100% (printed)
venous ulcer = assay: Open wound healing in a patient with incurable venous ulcer; format: in vivo, human; settings: 1% BAC-3 ointment, twice daily during 41 days
Experimental: The BAC-3 rhamnolipid was tested in the case of open wound healing, in a patient suffering around ten years from incurable venous ulcer. On the left leg, the patient had very thick layers of collagen with fibrotic lesions. […] Moreover, after treatment was finished, not only the collagen, but also the fibrotic lesions had disappeared as well. One year after the treatment, the treated skin lesions on the left leg appear normal, and all skin collagen and fibrotic layers had disappeared.

burn wounds [2] = assay: Topical treatment of burn wounds, 15% of body surface; format: in vivo, Sprague-Dawley rats; settings: 1% BAC-3 in ointment without chlorhexidine, started on 50th day after burning on open wounds; tapering regimen
Experimental: Method of burning. […] (Producer: Veterinary Laboratory Inc. Lenexa, Kans.).
Four rats were burned according to the described procedure using the wider opening in the Walker device (10×5 cm). All rats were treated from the beginning by placebo. After 50 days all burned rats had open wounds in average 2.3 cm at the neck, 1.3 cm in the middle and 1.8 cm at the tail.
On the 50th day after burning, animals were treated with 1% BAC-3 in ointment without chlorhexidine hydrochloride using the following procedure:
For the first 3 days, burn wounds were treated twice daily. After developing granulation tissue and the first sign of epithelization, animals were treated 3 days with 1% BAC-3 in ointment once daily. For the next four days, animals were treated every second day. After that wounds were treated every third day with 1% BAC-3 in ointment until the entire wound was re-epithelized. Re-epithelization was first completed at the middle of the wounds, then at the tails and finally at the necks. Whole epithelization in all animals was finished in 30 days.

incision wounds = assay: Tensile strength of incision wounds; format: in vivo, Sprague-Dawley rats; settings: 0.1% BAC-3, 21 days after wounding, p<0.05 by ANOVA; FIG. 3
From the text: Incision wounds. Dorsal midline incisions were made in anesthetized rats. The animals were clipped free of their fur and prepared with alcohol. A 5.0 cm, midline, full-thickness incision was made with a scalpel through the panniclus carnosus.
The wounds were immediately closed with skin sutures spaced at a distance of 0.5 cm. Seven days later, all sutures were removed. On days 14 and 21 after incision, three animals from each group were killed using an overdose of sodium pentobarbital. Using a plexiglass template, a minimum of two samples of full-thickness skin were harvested perpendicular to the long axis of the wound for tensile strength determination. The skin samples were 9.0 mm wide at the wound by 2.0 cm long.
Tensile Strength Determination. The standard wound samples for each treatment cohort were examined for tensile strength by pulling the individual wounds apart in an Instron 4201 (Universal Testing instruments, Instron Engineering Co., Canton, Mass.) material tester. Special clamps were used to securely grip the tissue to avoid slippage as the wounds were pulled at a standard cross speed of 25 mm/min. The tensile strength of healthy skin was measured in killed animals from each group.
Effect of BAC-3 on Tensile Strength of Incision Wounds (FIG. 3) with and without chlorhexidine hydrochloride. The tensile strength of incision wounds was measured 21 days after wounding. […]

WKY rats [3] = settings: cited from earlier work
WKY rats [4] = settings: cited from earlier work; remark: listed apart in the source
mice = settings: cited from earlier work; for PCP-induced enhancement of immobility in the forced swimming test: doses that failed to produce antidepressant effects in control animals

With `[H]/N=C(\N/C(=N/[H])NCCCCCCNC(=N)NC(=N)Nc1ccc(Cl)cc1)Nc1ccc(Cl)cc1` [chlorhexidine hydrochloride, reference compound] the wound irritation (burn wounds [1]; 1% chlorhexidine hydrochloride in combination with BAC-3, rats scratched lower and upper part of burn wounds) was “irritated wounds”.

In the case of `CCCCCCCC(CC(=O)O)OC(=O)CC(CCCCCCC)OC1OC(C)C(O)C(O)C1OC1OC(C)C(O)C(O)C1O` [BAC-3, (α-L-rhamnopyranosyl-(1,2)-α-L-rhamnopyranosyl)-3-hyroxydecanoyl-3-hydroxydecanoic acid], the “collagen and fibrotic lesions after treatment was finished” value (venous ulcer) is reported as “disappeared”, the “treated skin lesions one year after the treatment” value (venous ulcer; one year after) is reported as “appear normal” and the “patient's condition” value (venous ulcer; venous ulcer, left leg) is reported as “significantly improved”. The “time to whole epithelization in all animals” value (burn wounds [2]) was 30 days, the “rate of burn wound closure (decrease in wound size) vs vehicle alone” value (burn wounds [1]; 0.1% BAC-3 in eucerin, without chlorhexidine, twice daily, days 14-45, FIG. 1) was “significantly faster” and the “extent of burn wound closure (wound size) vs vehicle alone” value (burn wounds [1]; 0.1% BAC-3 in eucerin, without chlorhexidine, days 14, 21 and 28, p<0.05 by ANOVA, FIG. 2) was “significantly smaller”. The “body weights among the treatment groups” value (burn wounds [1]; 1% and 0.1% BAC-3 in eucerin vs vehicle, twice daily, 45 days) was “no significant differences”, the crust formation (burn wounds [1]; between all groups (1% and 0.1% BAC-3, with or without chlorhexidine, placebo), 45 days) was “no significant differences” and the granulation tissue (burn wounds [1]; group 1-A: 1% BAC-3 in ointment twice daily) was “prominently developed”. For the same compound, the “hair growth of dead skin during the healing period” value (burn wounds [1]; group 1-A: 1% BAC-3 in ointment, compared to the other groups) was “very prominent”, the “re-epithelization in the middle part of the burn wounds” value (burn wounds [1]; group 1-B: 0.1% BAC-3 in ointment twice daily) was “faster” and the “mean value of collagen tissue” value (burn wounds [1]; group 1 A: 1% BAC-3, without chlorhexidine) was 8.48 mm^2. For the same compound, the “mean value of collagen concentration relative to group 1 D (placebo)” value (burn wounds [1]; group 1 A: 1% BAC-3) was 131.26, the “mean value of collagen tissue” value (burn wounds [1]; group 1 B: 0.1% BAC-3, without chlorhexidine) was 5.15 mm^2 and the “mean value of collagen concentration relative to group 1 D (placebo)” value (burn wounds [1]; group 1 B: 0.1% BAC-3) was 79.72. The granulation tissue (burn wounds [1]; group 2-A: 1% BAC-3 in ointment plus 1% chlorhexidine hydrochloride twice daily) was “prominently developed”, the “re-epithelization in the middle part of the burn wounds” value (burn wounds [1]; group 2-B: 0.1% BAC-3 in ointment plus 1% chlorhexidine hydrochloride twice daily) was “faster” and the “tensile strength of incision wounds vs corresponding vehicle” value (incision wounds) was “significantly lower”.

In the case of `CNCCCN1c2ccccc2CCc2ccccc21` [desipramine], the “incidence of stress ulcer” value (WKY rats [3]) is listed as “reduces the incidence of stress ulcer” and the “immobility in the forced swim test” value (WKY rats [4]) is listed as “reduces immobility”.

In the case of `Cc1nc2sccn2c(=O)c1CCN1CCC(=C(c2ccc(F)cc2)c2ccc(F)cc2)CC1` [ritanserin], the “PCP-induced enhancement of immobility in the forced swimming test” value (mice; mice) is listed as “attenuated”.

In the case of `c1ccc(C2(N3CCCCC3)CCCCC2)cc1` [PCP, phencyclidine], the forced swimming-induced immobility (mice; mice treated repeatedly with PCP (10 mg/kg per day S.C.), same stress again) is listed as “enhanced” and the “persistence of the enhancing effect on immobility after withdrawal of the drug” value (mice; mice, PCP 10 mg/kg per day S.C.) is listed as “at least 21 days”.

For `Cc1nc2n(c(=O)c1CCN1CCC(c3noc4cc(F)ccc34)CC1)CCCC2` [risperidone], the “PCP-induced enhancement of immobility in the forced swimming test” value (mice; mice) is listed as “attenuated”.
